According to patent US4549023A, “3-Aminoindazole derivatives” (priority 1980, dated 1985):
Where two headings read alike, the source gives them in different places.

Key:
[1] = test system: carrageenin edema in rat's paw; assay: Carrageenin Edema Test in Rat's Paw (anti-inflammatory activity); assay type: in vivo, Female Wistar rats; conditions: for inhibition in vivo at 100 mg/kg: Rattus norvegicus, hydrochloric acid salts
Experimental: A standard method of Carrageenin Edema Test in Rat's Paw described in C. A. Winter et al., Proc. Soc. Exp. Biol. Med., 111, 544 (1962) was employed.
[…] One hour later, the pad of a hind paw of the rat was injected with 0.1 ml of 1% aqueous carrageenin solution. The volume of the paw was measured both before the injection of carrageenin and three hours after the injection.
The edema inhibition percentage of the test compound was calculated from the ratio of the increase in the volume of the affected paw of the test animals to the increase in the volume of the affected paw of the controls.
The anti-inflammatory activity of the 3-aminoindazole derivative hydrochloric acid salts of this invention was measured.
The anti-inflammatory activity of the 3-aminoindazole derivative hydrochloric acid salts obtained by Examples 1-49 of this invention was measured by the standard method of carrageenin edema test. In these tests, the amount of the administration of the salts was 100 mg/kg. The results are shown in Table 17 (Inhibition (%) was measured three hours after the injection).

[2] = Acute toxicity (LD50), intravenous injection; conditions: mouse, in vivo, male ddY-strain mice, read-out: LD50, Table 19
Experimental: Acute toxicity was measured by an ordinary method described in Finney DJ Probit Analysis Cambridge University Press 48, (1952). Ddy mice weighing about 18 g on average, each group consisting of 10 animals, were […] injected with the physiological salt solution containing the test compound. The amount of the test compound administered was varied in 5-8 groups. Three days after the administration, dead animals were counted in each group. The amount of the test compound killing half the number of the animals (LD50) was calculated from the results.
The acute toxicity of the 3-aminoindazole derivatives and their hydrochloric acid salts obtained by Examples 1-49 of this invention was measured by giving male ddY-strain mice an intravenous injection.

[3] = po, 3 h, 100 mg/kg, measured three hours after the injection, read-out: Inhibition (carrageenin edema), Table 17
[4] = 100 mg/kg, oral, 3 h after carrageenin, read-out: Inhibition (carrageenin edema), Table 1

Structure (SMILES) | inhibition in vivo at 100 mg/kg [1, 3] | LD50 at 72 h [2] | also measured
Nc1nn(CCCN2CCC(O)CC2)c2ccccc12 [Compound (24), 1-{3-(4-hydroxypiperidino)propyl}-3-aminoindazole] | 46% | 367 mg/kg | 
CN(C)CCNc1n[nH]c2ccccc12 [Compound (12), 3-(2-dimethylaminoethylamino)indazole] | 52% | 334 mg/kg | 
CN1CCN(CCCn2nc(N)c3ccccc32)CC1 [Compound (32), 1-{3-(4-methylpiperazino)propyl}-3-aminoindazole] | 27% | 368 mg/kg | 
CCN(CC)CCCNc1nn(CCC(C)N2CCCCC2)c2ccccc12 (centres unmarked) [Compound (42), 1-(3-piperidinobutyl)-3-(3-diethylaminopropylamino)indazole] | 29% | 167 mg/kg | 
c1ccc2c(NCCCCCCN3CCCCC3)n[nH]c2c1 [Compound (3), 3-(6-piperidinohexylamino)indazole] | 30% | 143 mg/kg | 
CCCCN(CCCC)CCCNc1n[nH]c2ccccc12 [Compound (11), 3-(3-di-n-butylaminopropylamino)indazole] | 65% | 115 mg/kg | 
CN(C)CCNc1nn(-c2ccccc2)c2ccccc12 [Compound C-5, 1-phenyl-3-(2-dimethylaminoethylamino)indazole, reference compound] |  |  | Inhibition (carrageenin edema), Table 2 ([1]; 25 mg/kg, oral): 15%; Inhibition (carrageenin edema), Table 2 ([1]; 50 mg/kg, oral): 18%; Inhibition (carrageenin edema), Table 2 ([1]; 100 mg/kg, oral): 55%
CCN(CC)CCCNc1nn(CCCN(CC)CC)c2ccccc12 [Compound (33), 1-(3-diethylaminopropyl)-3-(3-diethylaminopropylamino)indazole] | 29% | 238 mg/kg | inhibition in vivo at 100 mg/kg [1, 4]: 29%
Nc1nn(CCCN2CCCC2)c2ccccc12 [Compound (20), 1-(3-pyrrolidinopropyl)-3-aminoindazole] | 29% | 98 mg/kg | 
CC1CCCC(C)N1CCCNc1n[nH]c2ccccc12 (centres unmarked) [Compound (7), 3-{3-(2,6-dimethylpiperidino)propylamino}indazole] | 35% | 143 mg/kg | 
CCCNc1n[nH]c2ccccc12 [Compound C-1, 3-(propylamino)indazole, reference compound] |  |  | inhibition in vivo at 100 mg/kg [1, 4]: 7%
CC(CCNc1nn(CCCN2CCCCC2)c2ccccc12)N1CCCCC1 (centres unmarked) [Compound (41), 1-(3-piperidinopropyl)-3-(3-piperidinobutylamino)indazole] | 28% | 99 mg/kg | 
Nc1nn(CCCCCCN2CCCCC2)c2ccccc12 [Compound (19), 1-(6-piperidinohexyl)-3-aminoindazole] | 29% | 144 mg/kg | 
CCCCN(CCCC)CCCNc1nn(CCCN(CC)CC)c2ccccc12 [Compound (36), 1-(3-diethylaminopropyl)-3-(3-di-n-butylaminopropylamino)indazole] | 31% | 179 mg/kg | 
CCCn1nc(N)c2ccccc21 [Compound C-2, 1-propyl-3-aminoindazole, reference compound] |  |  | inhibition in vivo at 100 mg/kg [1, 4]: 7%
OC1CCN(CCCNc2n[nH]c3ccccc23)CC1 [Compound (8), 3-{3-(4-hydroxypiperidino)propylamino}indazole] | 47% | 358 mg/kg | 
c1ccc2c(NCCCN3CCCCCC3)n[nH]c2c1 [Compound (5), 3-(3-homopiperidinopropylamino)indazole] | 59% | 175 mg/kg | 
Nc1nn(CCCN2CCC(Cl)CC2)c2ccccc12 [Compound (25), 1-{3-(4-chloropiperidino)propyl}-3-aminoindazole] | 59% | 356 mg/kg | 
CC(CCn1nc(NCCCN2CCCCC2)c2ccccc21)N1CCCCC1 (centres unmarked) [Compound (43), 1-(3-piperidinobutyl)-3-(3-piperidinopropylamino)indazole] | 28% | 98 mg/kg | 
CCN(CC)CCCn1nc(N)c2ccccc21 [Compound (26), 1-(3-diethylaminopropyl)-3-aminoindazole] | 61% | 243 mg/kg | 
CC(CCn1nc(NCCCN2CCCCC2)c2ccccc21)N(C)C (centres unmarked) [Compound (47), 1-(3-dimethylaminobutyl)-3-(3-piperidinopropylamino)indazole] | 28% | 212 mg/kg | 

Structure (SMILES) | inhibition in vivo at 100 mg/kg [1, 3] | LD50 at 72 h [2] | also measured
CC1CCCC(C)N1CCCn1nc(N)c2ccccc21 (centres unmarked) [Compound (23), 1-{3-(2,6-dimethylpiperidino)propyl}-3-aminoindazole] | 34% | 152 mg/kg | 
CC(C)CC(CCNc1n[nH]c2ccccc12)N1CCCCC1 (centres unmarked) [Compound (15), 3-(5-methyl-3-piperidinohexylamino)indazole] | 42% | 144 mg/kg | 
c1ccc2c(c1)c(NCCCCCCN1CCCCC1)nn2CCCN1CCCCC1 [Compound (40)] | 21% | 122 mg/kg | 
CCCCN(CCCC)CCCn1nc(N)c2ccccc21 [Compound (27), 1-(3-di-n-butylaminopropyl)-3-aminoindazole] | 57% | 124 mg/kg | 
CCN(CC)C(CCNc1nn(CCC(C)N(C)C)c2ccccc12)CC(C)C (centres unmarked) [Compound (49), 1-(3-dimethylaminobutyl)-3-(3-diethylamino-5-methylhexylamino)indazole] | 21% | 247 mg/kg | 
CCN(CC)CCCn1nc(NCCCCCCN2CCCCC2)c2ccccc21 [Compound (35)] | 21% | 193 mg/kg | 
Nc1nn(CCN2CCCCC2)c2ccccc12 [Compound (17), 1-(2-piperidinoethyl)-3-aminoindazole] | 47% | 143 mg/kg | 
CC(CCNc1nn(CCC(C)N2CCCCC2)c2ccccc12)N(C)C (centres unmarked) [Compound (45)] | 21% | 124 mg/kg | 
Nc1nn(CCc2ccccc2)c2ccccc12 [Compound C-3, 1-(2-phenylethyl)-3-aminoindazole, reference compound] |  |  | inhibition in vivo at 100 mg/kg [1, 4]: 7%
ClC1CCN(CCCNc2n[nH]c3ccccc23)CC1 [Compound (9), 3-{3-(4-chloropiperidino)propylamino}indazole] | 68% | 347 mg/kg | 
CCN(CC)C(C)CCNc1n[nH]c2ccccc12 (centres unmarked) [Compound (16)] | 63% | 184 mg/kg | 
CC(C)CC(CCNc1nn(CCC(C)N2CCCCC2)c2ccccc12)N1CCCCC1 (centres unmarked) [Compound (44), 1-(3-piperidinobutyl)-3-(5-methyl-3-piperidinohexylamino)indazole] | 21% | 123 mg/kg | 
CC(C)CC(CCn1nc(N)c2ccccc21)N1CCCCC1 (centres unmarked) [Compound (30), 1-(5-methyl-3-piperidinohexyl)-3-aminoindazole] | 35% | 153 mg/kg | 
CC(CCNc1n[nH]c2ccccc12)N1CCCCC1 (centres unmarked) [Compound (14), 3-(3-piperidinobutylamino)indazole] | 55% | 95 mg/kg | 
CC(C)CC(CCn1nc(N)c2ccccc21)N(C)C (centres unmarked) [Compound (31), 1-(3-dimethylamino-5-methylhexyl)-3-aminoindazole] | 28% | 154 mg/kg | 
CCN(CC)CCCNc1nn(CCC(C)N(C)C)c2ccccc12 (centres unmarked) [Compound (46), 1-(3-dimethylaminobutyl)-3-(3-diethylaminopropylamino)indazole] | 29% | 272 mg/kg | 
c1ccc2c(NCCN3CCCCC3)n[nH]c2c1 [Compound (1), 3-(2-piperidinoethylamino)indazole] | 48% | 146 mg/kg | 
Nc1nn(CCCN2CCCCCC2)c2ccccc12 [Compound (21), 1-(3-homopiperidinopropyl)-3-aminoindazole] | 58% | 184 mg/kg | 
CC(CCn1nc(NCCC(C)N2CCCCC2)c2ccccc21)N(C)C (centres unmarked) [Compound (48), 1-(3-dimethylaminobutyl)-3-(3-piperidinobutylamino)indazole] | 27% | 213 mg/kg | 
CN1CCN(CCCNc2n[nH]c3ccccc23)CC1 [Compound (13), 3-{3-(4-methylpiperazino)propylamino}indazole] | 30% | 359 mg/kg | inhibition in vivo at 100 mg/kg [1, 4]: 30%; Inhibition values compared with comparative compounds ([1]; Table 1, 100 mg/kg): higher than that of the compound C-1
CCN(CC)CCCNc1nn(CCCN2CCCCC2)c2ccccc12 [Compound (38), 1-(3-piperidinopropyl)-3-(3-diethylaminopropylamino)indazole] | 29% | 168 mg/kg | inhibition in vivo at 100 mg/kg [1, 4]: 29%
